Assay results published in US5990170A, “Therapeutic use of mono and bicarboxylic acid amides active at the peripheral cannabinoid receptor” (Lifegroup S.p.A., priority 1994, dated 1999).
Like-named read-outs stand apart in the source and are kept apart here.

Tests used:
[1] = target: T1, CB2 receptor (RBL-2H3 cell membranes) (Rattus norvegicus, UniProt Q9QZN9); test: Competitive displacement of 3H-WIN 55,212-2 binding to RBL-2H3 cell membranes; conditions: for inhibition at 10 µM: read-out: % Displacement
T1 construct: Preparation of Plasmatic Membranes of RBL-2H3 Cells; endogenous in cells; host or cells: RBL-2H3 (rat basophilic leukemia) cell membranes
T1 sequence (Q9QZN9 1-360): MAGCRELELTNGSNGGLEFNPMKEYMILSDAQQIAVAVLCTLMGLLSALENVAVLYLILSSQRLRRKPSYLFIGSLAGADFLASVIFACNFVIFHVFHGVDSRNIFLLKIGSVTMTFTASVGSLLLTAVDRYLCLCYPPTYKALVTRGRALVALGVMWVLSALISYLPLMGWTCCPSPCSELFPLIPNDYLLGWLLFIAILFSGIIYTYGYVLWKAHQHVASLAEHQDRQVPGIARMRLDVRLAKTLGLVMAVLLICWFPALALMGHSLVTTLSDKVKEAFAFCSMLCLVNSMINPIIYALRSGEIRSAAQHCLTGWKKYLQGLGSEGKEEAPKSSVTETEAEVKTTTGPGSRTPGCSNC
Description: RBL-2H3 cells (100×10^6), frozen at -80° C., were thawed with 4 ml of Tris-HCl buffer solution 50 mM (pH 7.4), added with 0.25% w/v of Tripsin inhibitor, TYPE II-S: SOY BEAN® (distributed by Sigma). The cells were resuspended in the buffer and homogenized. The homogenate was centrifuged at 1500×g at 4° C. for 10 min. The supernatant obtained was collected and the precipitate was resuspended in 4 ml of the previous buffer. The resuspended precipitate was homogenized and centrifuged again at 1500×g at 4° C. for 5-10 min. The resulting supernatant was combined to the supernatant previously obtained and centrifuged at 5000×g for 10 min. After centrifugation, the supernatant was collected and further centrifuged at 40,000×g at 4° C. for 30 min. The resulting precipitate was resuspended in 0.5 ml of the buffer solution described above, with addition of 1% Bovine Serum Albumin fatty acid free. The obtained suspension was centrifuged at 40,000×g at 4° C. for 30 min. The resulting precipitate was collected and resuspended in buffer solution containing 50 mM Tris HCl, 1 mM Tris-EDTA, 3 mM MgCl2, pH 7.4, in order to obtain a proteic concentration of 1 μg/μl approx. This preparation may be used fresh, or frozen at -80° C. and utilized within few days.
Non-radioactive WIN 55,212-2 (1 μM) was used to inhibit specific binding. […] The competitors were added to the binding mixture prior to the labelled ligand. In both cases, for an evaluation of the reference specific binding, ethanol and DMSO were added at the same final concentration to the total binding and to the aspecific one, also in the absence of competitors.
WIN 55,212-2 was used at a concentration of 3 μM, whereas the other compounds were used at a concentration of 10 μM.
Incubation was carried out in the presence of 1% DMSO. The values of Inhibitory Concentration 50 (IC50) are expressed as means ± SEM, after the number of experiments reported hereinbelow.

[2] = tested on: RBL-2H3 cells; test: Inhibition of 3H-serotonin release induced by ADNP/DNP-HSA immunogenic stimulation in RBL-2H3 cells; format: cell-based, rat; conditions: for 3H-serotonin net release inhibition (%): + anandamide (12.5 μM) (Table 4); for functional effect following receptor activation (serotonin release): result in words; for inhibition at 100 µM: 100 μM (Table 8); for EC50: 15 minutes release period (Table 9)
[3] = Solubility in water and organic solvents; conditions: for solubility in water: result in words
[4] = target: T1, CB2 receptor (RBL-2H3 cell membranes); test: Competitive displacement of 3H-WIN 55,212-2 binding to RBL-2H3 cell membranes; conditions: competitor 10 μM; 0.1% DMSO
[5] = Rattus norvegicus, RBL-2H3, 0.25 h, read-out: 3H-serotonin net release (%)
[6] = read-out: ED50, inhibition of 3H-serotonin release, + anandamide (12.5 μM) (Table 5), 15 min
[7] = dmso, organic solvent or mixture
[8] = ethanol, organic solvent or mixture
[9] = Rattus norvegicus, RBL-2H3, 0.25 h, 0.1% DMSO and 0.1% ethanol (Table 3), read-out: ED50 (the source's name)
[10] = Rattus norvegicus, RBL-2H3, read-out: 3H-serotonin net release inhibition (%)
[11] = Rattus norvegicus, RBL-2H3, 0.25 h, 0.1% DMSO and 0.1% ethanol (Table 3), read-out: 3H-serotonin net release (%)
[12] = Rattus norvegicus, RBL-2H3, read-out: 3H-serotonin release inhibition %, 0.2% DMSO
[13] = Rattus norvegicus, RBL-2H3, read-out: 3H-serotonin release inhibition %, 1% DMSO
[14] = Rattus norvegicus, RBL-2H3, read-out: EC50, concentration inhibiting by 50% the net release of 3H serotonin, 0.2% DMSO
[15] = Rattus norvegicus, RBL-2H3, read-out: EC50, concentration inhibiting by 50% the net release of 3H serotonin, 1% DMSO
[16] = hot ethanol, organic solvent or mixture
[17] = Rattus norvegicus, RBL-2H3, read-out: 3H-serotonin release inhibition %, 0.2% DMSO, 50 μM (Table 8)

CCCCCCC(C)(C)c1cc(O)c2c(c1)OC(C)(C)[C@@H]1CCC(=O)C[C@@H]21 (relative stereo) [Nabilone, 3-(1,1-dimethylheptyl)-6,6a,7,8,10,10a-hexahydro-1-hydroxy-6,6-dimethyl-9H-dibenzo-[b,d]-pyran-9-one, reference compound]
IC50 [1]: 0.0026 ± 0.0014 µM | inhibition at 10 µM [1]: 100% | binding to the peripheral receptor ([1]; result in words): able to bind to the receptor and to compete | 3H-serotonin net release inhibition (%) ([2]; 5 μM): 50% | activity at 10 µM [2, 5]: 0% | IC50 ([2]; Rattus norvegicus, RBL-2H3, 0.25 h, read-out: ED50): 2.8 µM | inhibition at 5 µM ([2]; Rattus norvegicus, RBL-2H3, read-out: 3H-serotonin net release inhibition (%), 5 μM, - anandamide (Table 4)): 90% | IC50 [2, 6]: 5 µM | functional effect following receptor activation (serotonin release) [2]: able to inhibit, in a concentration-dependent way, RBL cells immunogenic activation

C=C(C)[C@@H]1CCC(C)=C[C@H]1c1c(O)cc(CCCCC)cc1O [Cannabidiol, cannabidiol, reference compound]
IC50 [1]: > 1 µM

CCCCCCCCCCCCCCCC(=O)N[C@@H](CO)c1ccccc1 [Example 1, N-palmitoyl-[(R)-2-amino-2-phenylethanol]]
solubility [3, 7]: > 10000 µg/mL | solubility [3, 8]: > 10000 µg/mL | solubility in water [3]: scarcely soluble | IC50 [1]: 0.0004 µM | inhibition at 10 µM [1]: 77% | 3H-serotonin net release inhibition (%) ([2]; 3 μM): 39% | activity at 3 µM ([2]; Rattus norvegicus, RBL-2H3, 0.25 h, 3 μM, 0.1% DMSO and 0.1% ethanol (Table 3), read-out: 3H-serotonin net release (%)): 0% | IC50 [2, 9]: 0.6 µM | inhibition at 3 µM [2, 10]: 100% | effect of anandamide co-incubation on the ability to inhibit serotonin release ([2]; co-incubation with anandamide, in words): reduces the ability | IC50 [2, 6]: 4 µM | functional effect following receptor activation (serotonin release) [2]: can inhibit the effects induced by mast cell activation and exert an effect that is higher than or comparable to the one of cannabinoids | Specific binding [4]: 325

CCCCCC/C=C\CCCCCCCC(=O)NCCO [Example 19, N-(2-hydroxyethyl)-palmitoleylamide]
solubility [3, 7]: > 10000 µg/mL | solubility [3, 8]: > 10000 µg/mL | solubility in water [3]: scarcely soluble | inhibition at 10 µM [1]: 100% | activity at 100 µM [2, 11]: 100%

CCCCCCCCCCCC(=O)NCCO [Example 22, N-(2-hydroxyethyl)-lauroylamide]
solubility ([3]; chloroform, organic solvent or mixture): > 10000 µg/mL | solubility [3, 7]: > 10000 µg/mL | solubility in water [3]: scarcely soluble | IC50 ([1]; RBL-2H3 cell membranes, 1% DMSO, means ± SEM): 0.0181 µM | inhibition at 10 µM [1]: 72% | inhibition at 100 µM [2, 12]: 100% | inhibition at 100 µM [2, 13]: 91% | EC50 [2, 14]: 35 µM | EC50 [2, 15]: 11 µM

O=C(/C=C/CCCCCCCCC(=O)NCCO)NCCO [Example 26, N,N'-bis(2-hydroxyethyl)-trans-2-dodecenediamide]
solubility [3, 7]: > 10000 µg/mL | solubility [3, 8]: > 10000 µg/mL | solubility ([3]; water): > 10000 µg/mL | inhibition at 10 µM [1]: 72% | 3H-serotonin net release inhibition (%) ([2]; 50 μM): 48% | activity at 50 µM ([2]; Rattus norvegicus, RBL-2H3, 0.25 h, 50 μM, 0.1% DMSO and 0.1% ethanol (Table 3), read-out: 3H-serotonin net release (%)): 21% | IC50 [2, 9]: 28 µM | inhibition at 100 µM [2, 12]: > 95% | inhibition at 100 µM [2, 13]: > 95% | inhibition at 50 µM [2, 10]: 79% | IC50 [2, 6]: 50 µM | Specific binding [4]: 402

CCCCCCCCCCCCCCCC(=O)NCCOP(=O)(O)O [Example 27, N-palmitoylethanolamide phosphate]
solubility [3, 7]: > 10000 µg/mL | solubility ([3]; phosphate buffer, pH 7.4, aqueous buffer): > 1000 µg/mL | solubility in water [3]: scarcely soluble | IC50 [1]: 0.0076 µM | inhibition at 10 µM [1]: 42% | 3H-serotonin net release inhibition (%) ([2]; 7.5 μM): 46% | activity at 7.5 µM ([2]; Rattus norvegicus, RBL-2H3, 0.25 h, 7.5 μM, 0.1% DMSO and 0.1% ethanol (Table 3), read-out: 3H-serotonin net release (%)): 0% | IC50 [2, 9]: 3.8 µM | inhibition at 7.5 µM [2, 10]: 100% | IC50 [2, 6]: 9.5 µM | functional effect following receptor activation (serotonin release) [2]: can inhibit the effects induced by mast cell activation and exert an effect that is higher than or comparable to the one of cannabinoids | Specific binding [4]: 843

C=CCCCCCCCCC(=O)NCCO [Example 28, N-(2-hydroxyethyl)-10-undecenoylamide]
solubility [3, 7]: > 10000 µg/mL | solubility [3, 8]: > 10000 µg/mL | solubility in water [3]: scarcely soluble | inhibition at 10 µM [1]: 77% | activity at 100 µM [2, 11]: 100%

CCCCCCCCCCCCCCCC(=O)N1CCOCC1 [Example 29, N-palmitoyl-morpholine]
solubility [3, 7]: > 10000 µg/mL | solubility [3, 16]: > 10000 µg/mL | solubility in water [3]: scarcely soluble | inhibition at 50 µM [2, 17]: 36% | inhibition at 30 µM ([2]; Rattus norvegicus, RBL-2H3, read-out: 3H-serotonin release inhibition %, 1% DMSO, 30 μM (Table 8)): 88% | EC50 [2, 14]: 42 µM | EC50 [2, 15]: 3.5 µM

CCCCCCCCCCCCCCCC(=O)N[C@H](C)CO [Example 30, N-palmitoyl-[R(-)-2-amino-1-propanol]]
solubility [3, 7]: > 5000 µg/mL | solubility [3, 8]: > 10000 µg/mL | solubility in water [3]: scarcely soluble | EC50 [2, 14]: 3.9 µM

CCCCCCCCCCCCCCCC(=O)N[C@@H](C)CO [Example 31, N-palmitoyl-[S(+)-2-amino-1-propanol]]
solubility [3, 7]: > 5000 µg/mL | solubility [3, 8]: > 10000 µg/mL | solubility in water [3]: scarcely soluble | EC50 [2, 14]: 7.7 µM

CCCCCCCCCCCCCCCC(=O)NC[C@@H](C)O [Example 32, N-palmitoyl-[R(-)-1-amino-2-propanol]]
solubility [3, 8]: > 5000 µg/mL | solubility in water [3]: scarcely soluble | EC50 [2, 14]: 0.73 µM

CCCCCCCCCCCCCCCC(=O)NC[C@H](C)O [Example 33, N-palmitoyl-[S(+)-1-amino-2-propanol]]
solubility [3, 8]: > 5000 µg/mL | solubility in water [3]: scarcely soluble | EC50 [2, 14]: 4.7 µM

CCCCCCCCCCCCCCCC(=O)NCCc1ccc(O)cc1 [Example 34, N-(p-hydroxy-phenylethyl)-palmitoylamide]
solubility [3, 7]: > 10000 µg/mL | solubility [3, 8]: > 10000 µg/mL | solubility in water [3]: scarcely soluble | EC50 [2, 14]: 13 µM | EC50 [2, 15]: 0.36 µM

CCCCCCCCCCCCCCCC(=O)NCCOC [Example 35, N-(2-methoxy-ethyl)-palmitoylamide]
solubility [3, 8]: > 10000 µg/mL | solubility in water [3]: scarcely soluble | EC50 [2, 14]: 6.3 µM | EC50 [2, 15]: 9.2 µM

CCCCCCCCCCCC(=O)N1CCOCC1 [Example 36, N-lauroyl-morpholine]
solubility [3, 7]: > 10000 µg/mL | solubility [3, 8]: > 10000 µg/mL | solubility in water [3]: scarcely soluble | activity at 100 µM [2, 11]: 51%

CCCCCCCCCCCCCCCCCC(=O)N1CCOCC1 [Example 37, N-stearoyl-morpholine]
solubility [3, 16]: > 10000 µg/mL | solubility in water [3]: scarcely soluble | EC50 [2, 15]: 15 µM

CCCCCCCCCCCCCCCCCC(=O)NCc1ccc(O)c(OC)c1 [Example 39, N-(4-hydroxy-3-methoxybenzyl)-stearoylamide]
solubility [3, 7]: > 10000 µg/mL | solubility [3, 8]: > 10000 µg/mL | solubility in water [3]: scarcely soluble | activity at 50 µM [2, 5]: 68% | inhibition at 50 µM [2, 17]: 32% | inhibition at 100 µM [2, 13]: 67%
